Measured values reported in US10597391B2, “Urea-containing isoxazole derivatives as FXR agonists and methods of use thereof” (Enanta Pharmaceuticals, Inc., priority 2016, dated 2020).
Read-outs that look alike come from different tables or passages of the source.

Target: T1, human FXR (NR1H4) (Homo sapiens, UniProt Q96RI1)
T1 sequence (Q96RI1 1-486): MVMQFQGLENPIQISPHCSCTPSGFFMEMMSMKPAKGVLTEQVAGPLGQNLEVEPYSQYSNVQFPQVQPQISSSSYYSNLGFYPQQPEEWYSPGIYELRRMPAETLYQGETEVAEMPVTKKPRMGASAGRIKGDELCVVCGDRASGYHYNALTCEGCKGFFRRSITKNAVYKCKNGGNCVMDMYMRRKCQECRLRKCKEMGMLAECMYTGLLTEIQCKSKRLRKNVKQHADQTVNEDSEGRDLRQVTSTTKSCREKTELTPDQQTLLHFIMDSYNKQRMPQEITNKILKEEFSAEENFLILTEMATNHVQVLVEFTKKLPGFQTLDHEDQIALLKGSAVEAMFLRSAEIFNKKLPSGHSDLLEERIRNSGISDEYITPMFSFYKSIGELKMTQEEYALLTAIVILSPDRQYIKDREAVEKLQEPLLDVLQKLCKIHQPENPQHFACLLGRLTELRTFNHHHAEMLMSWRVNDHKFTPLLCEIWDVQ
Experiment: Human FXR (NR1H4) Assay: Gal4 promoter driven luciferase reporter transactivation in CHO cells (Indigo Bioscience kit IB00601)
Format: cell-based
Settings: for Emax: CHO, read-out: Efficacy (%); for EC50: Human FXR (NR1H4) reporter assay in CHO cells
Method in brief: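 CHO reporter cells expressing human NR1H4 with luciferase driven by an FXR-responsive promoter (Gal4 system), run per manufacturer's kit. Compounds applied to plated cells, then incubated a further 22 hours at 37° C. Luciferase luminescence read after detection reagent as a surrogate of FXR activation, giving potency and efficacy.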

[1] = efficacy normalized to CDCA set as 100%

Compound	Emax [1]	EC50 (potency range, read-out: EC50)	Emax	EC50 (EC50, potency range)
N#Cc1cncc(NC(=O)N2C3CCC2CC(OCc2c(-c4c(Cl)cccc4Cl)noc2C2CC2)C3)c1 (stereo not shown) [Example 703]	170%	< 10 nM	–	–
COC(=O)c1cc(NC(=O)N2C3CCC2CC(OCc2c(-c4c(Cl)cccc4Cl)noc2C2CC2)C3)cc(-c2cccnc2)c1 (stereo not shown) [Example 726]	81%	< 10 nM	–	–
O=C(Nc1cc(-c2cccnc2)cc(C(F)(F)F)c1)N1C2CCC1CC(OCc1c(-c3c(Cl)cccc3Cl)noc1C1CC1)C2 (stereo not shown) [Example 14]	–	< 10 nM	–	–
CC(C)S(=O)(=O)NC(=O)c1cccc(NC(=O)N2C3CCC2CC(OCc2c(-c4ccccc4OC(F)(F)F)noc2C2CC2)C3)c1 (stereo not shown) [Example 758]	233%	100 to 1000 nM	–	–
O=C(Nc1cccnc1)N1C2CCC1CC(OCc1c(-c3c(Cl)cccc3Cl)noc1C1CC1)C2 (stereo not shown) [Example 15]	–	< 10 nM	–	–
COC(=O)c1ccc(NC(=O)N2C3CCC2CC(OCc2c(-c4ccccc4OC(F)(F)F)noc2C2CC2)C3)cc1OC(F)(F)F (stereo not shown) [Example 821]	75%	10 to 100 nM	–	–
CN1CCC(c2cccc(NC(=O)N3C4CCC3CC(OCc3c(-c5c(Cl)cccc5Cl)noc3C3CC3)C4)c2)CC1 (stereo not shown) [Example 5]	–	10 to 100 nM	–	–
Cn1cc(-c2cc(NC(=O)N3C4CCC3CC(OCc3c(-c5c(Cl)cccc5Cl)noc3C3CC3)C4)ccc2C(=O)O)cn1 (stereo not shown) [Example 776]	11%	100 to 1000 nM	–	–
CCOc1cc(C(=O)OC)ccc1NC(=O)N1C2CCC1CC(OCc1c(-c3c(Cl)cccc3Cl)noc1C1CC1)C2 (stereo not shown) [Example 718]	119%	10 to 100 nM	–	–
O=C(Nc1cncc(-c2ccccc2)c1)N1C2CCC1CC(OCc1c(-c3c(Cl)cccc3Cl)noc1C1CC1)C2 (stereo not shown) [Example 835]	223%	< 10 nM	–	–
O=C(NCc1ccc(F)cc1)N1C2CCC1CC(OCc1c(-c3c(Cl)cccc3Cl)noc1C1CC1)C2 (stereo not shown) [Example 732]	180%	< 10 nM	–	–
CC1(S(=O)(=O)NC(=O)c2ccc(NC(=O)N3C4CCC3CC(OCc3c(-c5c(Cl)cccc5Cl)noc3C3CC3)C4)cc2-c2cncnc2)CC1 (stereo not shown) [Example 790]	49%	10 to 100 nM	–	–
CCOC(=O)c1cccc(NC(=O)N2C3CCC2CC(OCc2c(-c4c(Cl)cccc4Cl)noc2C2CC2)C3)c1 (stereo not shown) [Example 181]	–	< 10 nM	–	–
COc1cc(C(=O)O)ccc1NC(=O)N1C2CCC1CC(OCc1c(-c3c(Cl)cccc3Cl)noc1C1CC1)C2 (stereo not shown) [Example 192]	–	< 10 nM	–	–
O=C(O)c1cnc2cc(NC(=O)N3C4CCC3CC(OCc3c(-c5c(Cl)cccc5Cl)noc3C3CC3)C4)ccc2c1 (stereo not shown) [Example 779]	50%	10 to 100 nM	–	–
COc1cc(C(=O)O)c(-c2ccccc2)cc1NC(=O)N1C2CCC1CC(OCc1c(-c3c(Cl)cccc3Cl)noc1C1CC1)C2 (stereo not shown) [Example 793]	99%	< 10 nM	–	–
O=C(Nc1ccc(F)c(C(F)(F)F)c1)N1C2CCC1CC(OCc1c(-c3c(Cl)cccc3Cl)noc1C1CC1)C2 (stereo not shown) [Example 702]	258%	< 10 nM	–	–
O=C(O)c1ccc(NC(=O)N2C3CCC2CC(OCc2c(-c4ccccc4OC(F)(F)F)noc2C2CC2)C3)cc1-c1ccccc1 (stereo not shown) [Example 247]	–	< 10 nM	–	–
COC(=O)c1ccc2c(c1)CN(C(=O)N1C3CCC1CC(OCc1c(-c4ccccc4OC(F)(F)F)noc1C1CC1)C3)CC2 (stereo not shown) [Example 833]	80%	> 1000 nM	–	–
O=C(O)c1ccc(NC(=O)N2C3CCC2CC(OCc2c(C4CCC5(CC4)CC5)noc2C2CC2)C3)c(C(F)(F)F)c1 (stereo not shown) [Example 819]	11%	10 to 100 nM	–	–
CCOC(=O)c1ccc(NC(=O)N2C3CCC2CC(OCc2c(-c4c(Cl)cccc4Cl)noc2C2CC2)C3)cc1 (stereo not shown) [Example 182]	–	10 to 100 nM	–	–
CN(C)S(=O)(=O)NC(=O)c1ccc(NC(=O)N2C3CCC2CC(OCc2c(-c4c(Cl)cccc4Cl)noc2C2CC2)C3)cc1 (stereo not shown) [Example 695]	140%	10 to 100 nM	–	–
CCOc1cc(C(=O)O)ccc1NC(=O)N1C2CCC1CC(OCc1c(-c3ccccc3C3CC3)noc1C1CC1)C2 (stereo not shown) [Example 811]	66%	10 to 100 nM	–	–
O=C(O)c1ccc(F)c(NC(=O)N2C3CCC2CC(OCc2c(-c4ccccc4OC(F)(F)F)noc2C2CC2)C3)c1 (stereo not shown) [Example 748]	103%	10 to 100 nM	–	–
O=C(Nc1cccc(-c2ccccc2)c1)N1C2CCC1CC(NCc1c(-c3c(Cl)cccc3Cl)noc1C1CC1)C2 (stereo not shown) [Example 773]	–	–	135%	10 to 100 nM
O=C(O)c1ccc(NC(=O)N2C3CCC2CC(OCc2c(-c4c(Cl)cccc4Cl)noc2C2CC2)C3)cc1-c1ccccc1 (stereo not shown) [Example 201]	–	< 10 nM	–	–
O=C(O)c1cccc(NC(=O)N2C3CCC2CC(OCc2c(-c4ccccc4OC(F)(F)F)noc2C2CC2)C3)c1 (stereo not shown) [Example 229]	–	100 to 1000 nM	–	–

Compound	Emax [1]	EC50 (potency range, read-out: EC50)	Emax	EC50 (EC50, potency range)
O=C(O)c1ccc(F)c(NC(=O)N2C3CCC2CC(OCc2c(-c4c(Cl)cccc4Cl)noc2C2CC2)C3)c1 (stereo not shown) [Example 723]	140%	100 to 1000 nM	–	–
O=C(O)c1c(F)cc(NC(=O)N2C3CCC2CC(OCc2c(-c4c(Cl)cccc4Cl)noc2C2CC2)C3)cc1F (stereo not shown) [Example 199]	–	100 to 1000 nM	–	–
O=C(Nc1nc2ccccc2s1)N1C2CCC1CC(OCc1c(-c3c(Cl)cccc3Cl)noc1C1CC1)C2 (stereo not shown) [Example 23]	–	10 to 100 nM	–	–
CC(C)(C)c1cccc(NC(=O)N2C3CCC2CC(OCc2c(-c4c(Cl)cccc4Cl)noc2C2CC2)C3)c1 (stereo not shown) [Example 4]	–	10 to 100 nM	–	–
O=C(O)c1cnc2ccc(NC(=O)N3C4CCC3CC(OCc3c(-c5c(Cl)cccc5Cl)noc3C3CC3)C4)cc2c1 (stereo not shown) [Example 211]	–	100 to 1000 nM	–	–
COc1ccc(CNC(=O)N2C3CCC2CC(OCc2c(-c4c(Cl)cccc4Cl)noc2C2CC2)C3)cc1 (stereo not shown) [Example 731]	229%	< 10 nM	–	–
O=C(O)c1ccc(NC(=O)N2C3CCC2CC(OCc2c(-c4c(Cl)cccc4Cl)noc2C2CC2)C3)nc1 (stereo not shown) [Example 788]	31%	10 to 100 nM	–	–
COC(=O)c1ccc(NC(=O)N2C3CCC2CC(OCc2c(-c4c(Cl)cccc4Cl)noc2C2CC2)C3)cc1C(F)(F)F (stereo not shown) [Example 194]	–	< 10 nM	–	–
CCOc1cc(C(=O)O)ccc1NC(=O)N1C2CCC1CC(OCc1c(C3CCC4(CC3)CC4)noc1C1CC1)C2 (stereo not shown) [Example 813]	16%	10 to 100 nM	–	–
CCOc1cc(C(=O)O)ccc1NC(=O)N1C2CCC1CC(NCc1c(-c3c(Cl)cccc3Cl)noc1C1CC1)C2 (stereo not shown) [Example 830]	82%	< 10 nM	–	–
O=C(Nc1ccc(F)cc1)N1C2CCC1CC(OCc1c(-c3c(Cl)cccc3Cl)noc1C1CC1)C2 (stereo not shown) [Example 698]	182%	10 to 100 nM	–	–
O=C(O)c1ccc(NC(=O)N2C3CCC2CC(OCc2c(-c4c(F)cccc4F)noc2C2CC2)C3)c(F)c1 (stereo not shown) [Example 808]	32%	10 to 100 nM	–	–
O=C(O)c1ccc2c(c1)N(C(=O)N1C3CCC1CC(OCc1c(-c4ccccc4OC(F)(F)F)noc1C1CC1)C3)CC2 (stereo not shown) [Example 590]	–	> 1000 nM	67%	–
NS(=O)(=O)c1cccc(NC(=O)N2C3CCC2CC(OCc2c(-c4c(Cl)cccc4Cl)noc2C2CC2)C3)c1 (stereo not shown) [Example 24]	–	100 to 1000 nM	–	–
O=C(O)c1cccc(F)c1NC(=O)N1C2CCC1CC(OCc1c(-c3ccccc3OC(F)(F)F)noc1C1CC1)C2 (stereo not shown) [Example 768]	33%	> 1000 nM	–	–
COC(=O)c1ccc(NC(=O)N2C3CCC2CC(OCc2c(-c4ccccc4OC(F)(F)F)noc2C2CC2)C3)c(OC)c1 (stereo not shown) [Example 236]	–	10 to 100 nM	–	–
O=C(O)c1cc(F)c(NC(=O)N2C3CCC2CC(OCc2c(-c4c(Cl)cccc4Cl)noc2C2CC2)C3)cc1-c1ccccc1 (stereo not shown) [Example 797]	129%	< 10 nM	–	–
O=C(c1ccc(-c2cccc(NC(=O)N3C4CCC3CC(OCc3c(-c5c(Cl)cccc5Cl)noc3C3CC3)C4)c2)cc1)N1CCOCC1 (stereo not shown) [Example 707]	220%	10 to 100 nM	–	–
O=C(Nc1cccc(-c2nnn[nH]2)c1)N1C2CC[C@H]1CC(OCc1c(-c3c(Cl)cccc3Cl)noc1C1CC1)C2 (stereo partly shown) [Example 185]	–	100 to 1000 nM	–	–
O=C(O)c1ccc(NC(=O)N2C3CCC2CC(OCc2c(-c4c(Cl)cccc4Cl)noc2C2CC2)C3)c(C2CC2)c1 (stereo not shown) [Example 801]	70%	10 to 100 nM	–	–
COC(=O)c1cc(F)c(NC(=O)N2C3CCC2CC(OCc2c(-c4c(Cl)cccc4Cl)noc2C2CC2)C3)cc1-c1ccccc1 (stereo not shown) [Example 794]	80%	< 10 nM	–	–
CC(C)(C)c1ccc(S(=O)(=O)NC(=O)c2cccc(NC(=O)N3C4CCC3CC(OCc3c(-c5c(Cl)cccc5Cl)noc3C3CC3)C4)c2)cc1 (stereo not shown) [Example 217]	–	> 1000 nM	–	–
O=C(Nc1ccccn1)N1C2CCC1CC(OCc1c(-c3c(Cl)cccc3Cl)noc1C1CC1)C2 (stereo not shown) [Example 16]	–	100 to 1000 nM	–	–
COC(=O)c1ccc(NC(=O)N2C3CCC2CC(OCc2c(-c4c(Cl)cccc4Cl)noc2C2CC2)C3)cn1 (stereo not shown) [Example 212]	–	< 10 nM	–	–
O=C(O)c1ccc(NC(=O)N2C3CCC2CC(OCc2c(-c4c(Cl)cccc4Cl)noc2C2CC2)C3)c(C(F)(F)F)c1 (stereo not shown) [Example 710]	170%	10 to 100 nM	–	–
COC(=O)c1c(F)cc(NC(=O)N2C3CCC2CC(OCc2c(-c4c(Cl)cccc4Cl)noc2C2CC2)C3)cc1F (stereo not shown) [Example 198]	–	< 10 nM	–	–
